{
  "source": "patent US12071624B2",
  "about": "“Antisense oligonucleotide targeting ARL4C molecule, and nucleic acid drug using antisense oligonucleotide” (OSAKA UNIVERSITY, priority 2018, dated 2024)",
  "key": {"S2-CP8/Luc cells": {"test_system": "S2-CP8/Luc cells", "test": "Xenograft orthotopic transplantation model using pancreatic cancer cells", "format": "in vivo, mouse", "conditions": "twice a week from 3 days after transplantation, 28 days after transplantation", "procedure": "Assay based on the xenograft orthotopic transplantation model using pancreatic cancer cells was performed by arranging the method described in the literature (Kim M P. et. al., Nat Protoc 2009; 4: 1670-80). Specifically, S2-CP8/Luc cells (5×10^5 cells) were suspended in 100 μl of Hanks' Balanced Salt Solution (HBSS) containing 50% matrigel, and were orthotopically transplanted in the central part of the pancreas using a 27 G needle. Three days after transplantation, the mice were divided into two groups, a control ASO-administered group (n=6) and an ARL4C ASO-administered group (n=7). […] Tumors were quantified once a week using the IVIS imaging system (Xenogen Corp.). In the in-vivo imaging, 100 μl of VivoGlo luciferin (30 mg/ml) was intraperitoneally administered, and bioluminescence images were recorded eight minutes after the administration. The quantification of the tumors was carried out in the following manner: a region of interest (ROI) was selected, and a radiance value of the same was measured using Living Image 4.3.1 Software (Caliper Life Science). The mice were euthanized 28 days after the transplantation, tumor weights and the number of mesenteric lymph nodes (lymph nodes of 1 mm or larger in diameter) were determined, and histological analysis was carried out. […]"}, "A549/Luc cells": {"test_system": "A549/Luc cells", "test": "Xenograft orthotopic transplantation model using lung cancer cells", "format": "in vivo, mouse", "procedure": "Eight-week-old male nude mice (BALB/cAJcl-nu/nu, CLEA Japan, Inc.) were intraperitoneally injected with medetomidine (0.75 mg/kg), midazolam (4 mg/kg), and butorphanol (5 mg/kg) so as to be anesthetized. The xenograft orthotopic transplantation model was formed by transplanting human lung cancer cells into the left lungs of mice in the following order. A549/Luc cells (approximately 2×10^6 cells) were suspended in 10 μl of PBS (phosphate buffered saline) and 10 μl of Matrigel (BD Biosciences, San Jose, CA, USA), and a 29 G needle attached to a 0.5 ml insulin syringe (BD Biosciences, San Jose, CA, USA) was used to inject the same through the intercostal space to a depth of 2 mm in the left lung. The incision in the skin was closed with a 5-0 polypropylene suture, and the mice were rested on a warm carpet until they were fully recovered.\nOne week after the tumor transplantation, tumor establishment was confirmed using an IVIS imaging system (Xenogen Corp., Alameda, CA, USA). In the in-vivo imaging, 100 μl of VivoGlo luciferin (30 mg/ml) was administered via the tail vein, and bioluminescence imaging was recorded 5 minutes after the administration. Mice with established tumors were then divided into two groups, a control ASO inhalation group (n=7) and an ARL4C ASO inhalation group (n=9) in such a manner that the groups had identical IVIS signal intensities. […] When 21 days elapsed after the tumor transplantation, tumor sizes were determined using the IVIS imaging system, and then the mice were euthanized for histological analysis. […]\nIn an experiment in a xenograft orthotopic transplantation model using lung cancer cells, A549/Luc cells were transplanted into the left lung (day 0), and transbronchial administration of control ASO and ARL4C ASO-1316 was carried out when 7, 11 and 15 days had elapsed after the transplantation. […] In addition, when 7 and 21 days had elapsed since the transplantation, luminescence intensities of luciferase emitted from tumors in the left lungs in the mice were measured using software of IVIS/Kodak; the results are shown in the right part of (a) of FIG. 11. […]"}},
  "data": [
    {"substance": "ASO-1316: 15-mer AmNA/phosphorothioate ASO targeting ARL4C, base sequence SEQ ID NO: 1 gcatacctcaggtaa; Table 1 SEQ ID NO 13 (antisense GCATACCTCAGGTAA; AmNA and phosphorothioate modified, pattern not given here)", "values": [
      {"measurement": "cancer metastasis to mesenteric lymph nodes", "setting": "S2-CP8/Luc cells", "result": "could suppress cancer metastasis to mesenteric lymph nodes"},
      {"measurement": "proliferation of A549/Luc cells in left lung (luciferase luminescence intensity)", "setting": "A549/Luc cells; 200 μg/body transbronchially on days 7, 11 and 15, days 7 and 21", "result": "inhibited A549/Luc cells from proliferating"},
      {"measurement": "Ki-67-positive cells in left lung tumor", "setting": "A549/Luc cells; day 21", "result": "Ki-67-positive cells decreased in number"},
      {"measurement": "expression of ARL4C in left lung tumor (immunostaining)", "setting": "A549/Luc cells; day 21", "result": "decreased expression of ARL4C"}
    ]}
  ]
}
